The target of experiment [1] is GLP-1R (Homo sapiens, UniProt P43220). Nature of the experiment: HitHunter cAMP assay (GLP-1R). The settings on record: cAMP; for Emax: read-out: (Emax) GLP-1R. The class given is cell-based. An outline of the steps:
(§1)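 Duplicate 22-point, 2-fold agonist titrations applied to receptor-expressing suspension cells in IBMX-containing HBSS; 30 min RT stimulation. Read: luminescent cAMP immunocompetition after O/N dark incubation.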
On the technique in general: Cyclic AMP is a second messenger, typically raised through Gs and lowered through Gi signalling.

The target of experiment [2] is T1, GIP-R (Homo sapiens, UniProt P48546).
T1 sequence (P48546 22-466): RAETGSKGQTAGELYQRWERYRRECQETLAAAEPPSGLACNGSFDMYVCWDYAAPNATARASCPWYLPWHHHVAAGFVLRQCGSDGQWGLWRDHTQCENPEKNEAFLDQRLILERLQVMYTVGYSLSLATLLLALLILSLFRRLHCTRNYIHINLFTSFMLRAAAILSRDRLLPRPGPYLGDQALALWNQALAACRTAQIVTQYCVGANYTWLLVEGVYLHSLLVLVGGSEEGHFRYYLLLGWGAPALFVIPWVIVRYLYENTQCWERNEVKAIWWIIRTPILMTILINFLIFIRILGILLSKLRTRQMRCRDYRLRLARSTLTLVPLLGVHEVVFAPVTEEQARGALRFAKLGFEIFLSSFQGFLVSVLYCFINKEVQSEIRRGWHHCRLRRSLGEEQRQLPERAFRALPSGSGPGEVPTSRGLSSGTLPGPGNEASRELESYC
Nature of the experiment: HitHunter cAMP assay (GIP-R). The settings on record: cAMP; for Emax: read-out: (Emax) GIP-R. The class given is cell-based. An outline of the steps: as §1

Setting [3] is: Table 3, read-out: EC50 GLP-1R/nM.
Where [4] appears, read: Table 3A, read-out: EC50 GLP-1R/nM.
Where [5] appears, read: Table 3, read-out: EC50 GIP-R/nM.
Setting [6] is: Table 3A, read-out: EC50 GIP-R/nM.

Like-named read-outs stand apart in the source and are kept apart here. A value given as a limit tells only on which side of the number the result lay.

Our source for the Emax and EC50 values is patent US20260176320A1, “MODULATORS OF G-PROTEIN COUPLED RECEPTORS” (priority 2018, published 2026).

GLP-1R, sequence (P43220 24-463): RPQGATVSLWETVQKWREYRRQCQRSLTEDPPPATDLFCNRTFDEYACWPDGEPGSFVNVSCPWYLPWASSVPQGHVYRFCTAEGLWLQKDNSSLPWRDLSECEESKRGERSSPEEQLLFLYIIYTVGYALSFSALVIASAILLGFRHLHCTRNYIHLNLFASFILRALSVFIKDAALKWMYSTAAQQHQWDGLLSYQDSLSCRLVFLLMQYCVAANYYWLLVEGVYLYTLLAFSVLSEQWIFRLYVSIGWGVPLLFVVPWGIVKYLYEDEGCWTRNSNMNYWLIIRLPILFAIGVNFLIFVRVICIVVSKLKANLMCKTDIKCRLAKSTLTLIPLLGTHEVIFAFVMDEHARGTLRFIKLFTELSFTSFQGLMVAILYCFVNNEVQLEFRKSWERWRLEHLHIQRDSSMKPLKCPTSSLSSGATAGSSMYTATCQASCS

For the compound `CCCCCCCCCCCCCCCC(=O)N[C@@H](CCC(=O)NCCCC[C@H](NC(=O)[C@H](CO)NC(=O)[C@@H]1CCCN1C(=O)[C@@H]1CCCN1C(=O)[C@@H]1CCCN1C(=O)[C@H](C)NC(=O)CNC(=O)[C@H](CO)NC(=O)[C@H](CO)NC(=O)[C@@H]1CCCN1C(=O)CNC(=O)CNC(=O)[C@H](C)NC(=O)[C@H](CC(C)C)NC(=O)[C@H](CC(C)C)NC(=O)[C@H](Cc1c[nH]c2ccccc12)NC(=O)[C@H](CC(N)=O)NC(=O)[C@@H](NC(=O)[C@H](Cc1ccccc1)NC(=O)[C@H](CCC(=O)O)NC(=O)C(C)(C)NC(=O)[C@H](C)NC(=O)[C@H](C)NC(=O)[C@H](CCC(N)=O)NC(=O)[C@H](CCCCN)NC(=O)[C@H](CC(=O)O)NC(=O)[C@H](CC(C)C)NC(=O)[C@H](Cc1ccc(O)cc1)NC(=O)[C@@H](NC(=O)[C@H](CO)NC(=O)[C@H](Cc1ccc(O)cc1)NC(=O)[C@H](CC(=O)O)NC(=O)[C@H](CO)NC(=O)[C@@H](NC(=O)[C@H](Cc1ccccc1)NC(=O)[C@@H](NC(=O)CNC(=O)[C@H](CCC(=O)O)NC(=O)CSCC(=O)NCCn1ccccc1=O)[C@@H](C)O)[C@@H](C)O)[C@@H](C)CC)C(C)C)C(N)=O)C(=O)O` [Compound 52], the Emax (commonly the size of the effect at its maximum, as opposed to the concentration needed) in experiment [1] (Table 3) is 101%; in experiment [1] (Table 3A), 101%; in experiment [2] (Table 3), 56 to 61%; in experiment [2] (Table 3A), 56 to 61%. Besides, the EC50 in experiment [1] (setting [3]) is under 0.1 nM; in experiment [1] (setting [4]), under 0.1 nM; in experiment [2] (setting [5]) it was 1 to 10 nM; in experiment [2] (setting [6]), 1 to 10 nM.
Consider `CCCCCCCCCCCCCCCC(=O)N[C@@H](CCC(=O)NCCCC[C@H](NC(=O)[C@H](CO)NC(=O)[C@@H]1CCCN1C(=O)[C@@H]1CCCN1C(=O)[C@@H]1CCCN1C(=O)[C@H](C)NC(=O)CNC(=O)[C@H](CO)NC(=O)[C@H](CO)NC(=O)[C@@H]1CCCN1C(=O)CNC(=O)CNC(=O)[C@H](C)NC(=O)[C@H](CC(C)C)NC(=O)[C@H](CC(C)C)NC(=O)[C@H](Cc1c[nH]c2ccccc12)NC(=O)[C@H](CC(N)=O)NC(=O)[C@@H](NC(=O)[C@H](Cc1ccccc1)NC(=O)[C@H](CCC(=O)O)NC(=O)C(C)(C)NC(=O)[C@H](C)NC(=O)[C@H](C)NC(=O)[C@H](CCC(N)=O)NC(=O)[C@H](CCCCN)NC(=O)[C@H](CC(=O)O)NC(=O)[C@H](CC(C)C)NC(=O)[C@H](Cc1ccc(O)cc1)NC(=O)[C@@H](NC(=O)[C@H](CO)NC(=O)[C@H](Cc1ccc(O)cc1)NC(=O)[C@H](CC(=O)O)NC(=O)[C@H](CO)NC(=O)[C@@H](NC(=O)[C@H](Cc1ccccc1)NC(=O)[C@@H](NC(=O)CNC(=O)[C@H](CCC(=O)O)NC(=O)CSCC(=O)NCCN1C(=O)CC(N)C1=O)[C@@H](C)O)[C@@H](C)O)[C@@H](C)CC)C(C)C)C(N)=O)C(=O)O` (mixture of isomers) [Compound 67], for which the Emax in experiment [1] (Table 3) was 100%; in experiment [1] (Table 3A), 100%; in experiment [2] (Table 3), 65%; in experiment [2] (Table 3A), 65%. For the same compound, the EC50 in experiment [1] (setting [3]) is 0.1 to 1 nM; in experiment [1] (setting [4]) it was 0.1 to 1 nM; in experiment [2] (setting [5]), 1 to 10 nM; in experiment [2] (setting [6]), 1 to 10 nM.
Regarding `CCCCCCCCCCCCCCCC(=O)N[C@@H](CCC(=O)NCCCC[C@H](NC(=O)[C@H](CO)NC(=O)[C@@H]1CCCN1C(=O)[C@@H]1CCCN1C(=O)[C@@H]1CCCN1C(=O)[C@H](C)NC(=O)CNC(=O)[C@H](CO)NC(=O)[C@H](CO)NC(=O)[C@@H]1CCCN1C(=O)CNC(=O)CNC(=O)[C@H](C)NC(=O)[C@H](CC(C)C)NC(=O)[C@H](CC(C)C)NC(=O)[C@H](Cc1c[nH]c2ccccc12)NC(=O)[C@H](CC(N)=O)NC(=O)[C@@H](NC(=O)[C@H](Cc1ccccc1)NC(=O)[C@H](CCC(=O)O)NC(=O)C(C)(C)NC(=O)[C@H](C)NC(=O)[C@H](C)NC(=O)[C@H](CCC(N)=O)NC(=O)[C@H](CCCCN)NC(=O)[C@H](CC(=O)O)NC(=O)[C@H](CC(C)C)NC(=O)[C@H](Cc1ccc(O)cc1)NC(=O)[C@@H](NC(=O)[C@H](CO)NC(=O)[C@H](Cc1ccc(O)cc1)NC(=O)[C@H](CC(=O)O)NC(=O)[C@H](CO)NC(=O)[C@@H](NC(=O)[C@H](Cc1ccccc1)NC(=O)[C@@H](NC(=O)CNC(=O)[C@H](CCC(=O)O)NC(=O)CSCC(=O)NCCN1C(=O)[C@H]2CCC[C@H]2C1=O)[C@@H](C)O)[C@@H](C)O)[C@@H](C)CC)C(C)C)C(N)=O)C(=O)O` [Compound 103], the EC50 is 10 to 100 nM in experiment [1] (EC50 GLP-1R/nM, Table 3); 10 to 100 nM in experiment [1] (EC50 GLP-1R/nM, Table 3A); 1 to 10 nM in experiment [2] (EC50 GIP-R/nM, Table 3); 1 to 10 nM in experiment [2] (EC50 GIP-R/nM, Table 3A). For the same compound, the Emax in experiment [1] (Table 3) turned out to be 95%; in experiment [1] (Table 3A), 95%; in experiment [2] (Table 3), 68%; in experiment [2] (Table 3A) it was 68%.
As for `CCCCCCCCCCCCCCCC(=O)N[C@@H](CCC(=O)NCCCC[C@H](NC(=O)[C@H](CO)NC(=O)[C@@H]1CCCN1C(=O)[C@@H]1CCCN1C(=O)[C@@H]1CCCN1C(=O)[C@H](C)NC(=O)CNC(=O)[C@H](CO)NC(=O)[C@H](CO)NC(=O)[C@@H]1CCCN1C(=O)CNC(=O)CNC(=O)[C@H](C)NC(=O)[C@H](CC(C)C)NC(=O)[C@H](CC(C)C)NC(=O)[C@H](Cc1c[nH]c2ccccc12)NC(=O)[C@H](CC(N)=O)NC(=O)[C@@H](NC(=O)[C@H](Cc1ccccc1)NC(=O)[C@H](CCC(=O)O)NC(=O)C(C)(C)NC(=O)[C@H](C)NC(=O)[C@H](C)NC(=O)[C@H](CCC(N)=O)NC(=O)[C@H](CCCCN)NC(=O)[C@H](CC(=O)O)NC(=O)[C@H](CC(C)C)NC(=O)[C@H](Cc1ccc(O)cc1)NC(=O)[C@@H](NC(=O)[C@H](CO)NC(=O)[C@H](Cc1ccc(O)cc1)NC(=O)[C@H](CC(=O)O)NC(=O)[C@H](CO)NC(=O)[C@@H](NC(=O)[C@H](Cc1ccccc1)NC(=O)[C@@H](NC(=O)CNC(=O)[C@H](CCC(=O)O)NC(=O)CSCC(=O)NCCN1C(=O)C[C@H](O)C1=O)[C@@H](C)O)[C@@H](C)O)[C@@H](C)CC)C(C)C)C(N)=O)C(=O)O` [Compound 78], the EC50 was 0.1 to 1 nM in experiment [1] (EC50 GLP-1R/nM, Table 3); 0.1 to 1 nM in experiment [1] (EC50 GLP-1R/nM, Table 3A); 1 to 10 nM in experiment [2] (EC50 GIP-R/nM, Table 3); 1 to 10 nM in experiment [2] (EC50 GIP-R/nM, Table 3A). Also, the Emax is 94% in experiment [1] (Table 3), 94% in experiment [1] (Table 3A), 58% in experiment [2] (Table 3) and 58% in experiment [2] (Table 3A).
As to `CCCCCCCCCCCCCCCC(=O)N[C@@H](CCC(=O)NCCCC[C@H](NC(=O)[C@H](CO)NC(=O)[C@@H]1CCCN1C(=O)[C@@H]1CCCN1C(=O)[C@@H]1CCCN1C(=O)[C@H](C)NC(=O)CNC(=O)[C@H](CO)NC(=O)[C@H](CO)NC(=O)[C@@H]1CCCN1C(=O)CNC(=O)CNC(=O)[C@H](C)NC(=O)[C@H](CC(C)C)NC(=O)[C@H](CC(C)C)NC(=O)[C@H](Cc1c[nH]c2ccccc12)NC(=O)[C@H](CC(N)=O)NC(=O)[C@@H](NC(=O)[C@H](Cc1ccccc1)NC(=O)[C@H](CCC(=O)O)NC(=O)C(C)(C)NC(=O)[C@H](C)NC(=O)[C@H](C)NC(=O)[C@H](CCC(N)=O)NC(=O)[C@H](CCCCN)NC(=O)[C@H](CC(=O)O)NC(=O)[C@H](CC(C)C)NC(=O)[C@H](Cc1ccc(O)cc1)NC(=O)[C@@H](NC(=O)[C@H](CO)NC(=O)[C@H](Cc1ccc(O)cc1)NC(=O)[C@H](CC(=O)O)NC(=O)[C@H](CO)NC(=O)[C@@H](NC(=O)[C@H](Cc1ccccc1)NC(=O)[C@@H](NC(=O)CNC(=O)[C@H](CCC(=O)O)NC(=O)CSCC(=O)NCCN1NCCC1=O)[C@@H](C)O)[C@@H](C)O)[C@@H](C)CC)C(C)C)C(N)=O)C(=O)O` [Compound 58], the Emax in experiment [1] (Table 3) amounted to 108%; in experiment [1] (Table 3A), 108%; in experiment [2] (Table 3), 26%; in experiment [2] (Table 3A), 26%. The EC50 in experiment [1] (setting [3]) fell in the range of 0.1 to 1 nM; in experiment [1] (setting [4]), 0.1 to 1 nM; in experiment [2] (setting [5]), 1 to 10 nM; in experiment [2] (setting [6]) it was 10 to 100 nM.
For `CCCCCCCCCCCCCCCC(=O)N[C@@H](CCC(=O)NCCCC[C@H](NC(=O)[C@H](CO)NC(=O)[C@@H]1CCCN1C(=O)[C@@H]1CCCN1C(=O)[C@@H]1CCCN1C(=O)[C@H](C)NC(=O)CNC(=O)[C@H](CO)NC(=O)[C@H](CO)NC(=O)[C@@H]1CCCN1C(=O)CNC(=O)CNC(=O)[C@H](C)NC(=O)[C@H](CC(C)C)NC(=O)[C@H](CC(C)C)NC(=O)[C@H](Cc1c[nH]c2ccccc12)NC(=O)[C@H](CC(N)=O)NC(=O)[C@@H](NC(=O)[C@H](Cc1ccccc1)NC(=O)[C@H](CCC(=O)O)NC(=O)C(C)(C)NC(=O)[C@H](C)NC(=O)[C@H](C)NC(=O)[C@H](CCC(N)=O)NC(=O)[C@H](CCCCN)NC(=O)[C@H](CC(=O)O)NC(=O)[C@H](CC(C)C)NC(=O)[C@H](Cc1ccc(O)cc1)NC(=O)[C@@H](NC(=O)[C@H](CO)NC(=O)[C@H](Cc1ccc(O)cc1)NC(=O)[C@H](CC(=O)O)NC(=O)[C@H](CO)NC(=O)[C@@H](NC(=O)[C@H](Cc1ccccc1)NC(=O)[C@@H](NC(=O)CNC(=O)[C@H](CCC(=O)O)NC(=O)CSCC(=O)NCCN1C[C@H](O)CC1=O)[C@@H](C)O)[C@@H](C)O)[C@@H](C)CC)C(C)C)C(N)=O)C(=O)O` [Compound 50], the Emax in experiment [1] (Table 3) is 103%; in experiment [1] (Table 3A), 103%; in experiment [2] (Table 3), 26%; in experiment [2] (Table 3A), 26%. Moreover, the EC50 lay within 0.1 to 1 nM in experiment [1] (setting [3]), 0.1 to 1 nM in experiment [1] (setting [4]), 1 to 10 nM in experiment [2] (setting [5]) and 10 to 100 nM in experiment [2] (setting [6]).
